Test systems include UACC-62 melanoma; COLO 205 colon; SF-295 CNS; T-47D breast; MALME-3M melanoma; SR leukemia; PC-3 prostate; 786-0 renal.
Common to all, as to test: NCI anticancer screen, dose series, 48 h

Values joined by “and” are separate entries in the source; they are usually repeats but may differ in a detail not shown here. Equal values may be shown once.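 96-well plates; 48 h exposure; 5 concentrations. Endpoints by linear interpolation between flanking doses. Not reached: highest tested concentration assigned. GI50 is the concentration that inhibits growth by half. At the TGI there is no net growth.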 Some results are limits rather than exact numbers.

Consider `CC[N+](CC)=c1sc2c(s1)C(c1ccc(Cl)cc1)Oc1ccc(Cl)cc1-2` (configuration not stated), for which the GI50 in the assay on UACC-62 melanoma was 1.65 µM; with COLO 205 colon, 1.65 µM; in the assay on SF-295 CNS, 1.09 µM; in the assay on T-47D breast, 1.67 µM; in the assay on MALME-3M melanoma, 1.44 µM; with SR leukemia, 2.68 µM. Further, the GI50 in the assay on PC-3 prostate is 1.38 µM; in the assay with 786-0 renal, 1.92 µM. For the same molecule, the TGI with UACC-62 melanoma is 4.14 µM; with COLO 205 colon it was 3.77 µM; in the assay with SF-295 CNS, 4.64 µM; with T-47D breast, 6.39 µM; in the assay on MALME-3M melanoma, 3.88 µM; in the assay on SR leukemia, 7.15 µM. The results for the TGI with PC-3 prostate and in the assay on 786-0 renal were 3.28 µM and 3.76 µM, respectively.
Turning to `Cc1nc(SCC(=O)Nc2nc(-c3ccc(Cl)cc3)cs2)n(Nc2ccccc2)c1C`, the GI50 in the assay with UACC-62 melanoma was 3.09 µM; with COLO 205 colon, 4.13 µM; in the assay with SF-295 CNS, 2.29 µM; in the assay on T-47D breast, 1.4 µM; with MALME-3M melanoma, 10.8 µM; in the assay on SR leukemia it was 3.81 µM. In addition, the values for the GI50 in the assay on PC-3 prostate and in the assay on 786-0 renal were 2.34 µM and 3.6 µM, respectively. The TGI in the assay on UACC-62 melanoma is 16.1 µM; in the assay with COLO 205 colon, 14.5 µM; in the assay with SF-295 CNS, 16.5 µM; with T-47D breast, 5.24 µM; with MALME-3M melanoma it was 37.6 µM; in the assay on SR leukemia, more than 100 µM. In addition, the TGI with PC-3 prostate was found to be 11 µM; with 786-0 renal it was 13.7 µM.
`CC(=O)OCC1OC(n2c(-c3ccc(Cl)cc3)ccc(C#N)c2=S)C(OC(C)=O)C(OC(C)=O)C1OC(C)=O` (configuration not stated): the TGI in the assay with UACC-62 melanoma is more than 100 µM; with COLO 205 colon, more than 100 µM; in the assay on SF-295 CNS, 35 µM and > 100 µM; in the assay on T-47D breast, more than 100 µM; in the assay on MALME-3M melanoma, more than 100 µM; with SR leukemia, more than 100 µM. For the same molecule, the TGI in the assay on PC-3 prostate is more than 100 µM; with 786-0 renal it was 55.8 µM and 72.9 µM. Besides, the GI50 with COLO 205 colon is > 100 µM and 49.5 µM; in the assay on SF-295 CNS, 13.8 µM and > 100 µM; with SR leukemia, > 100 µM and 40.2 µM; with 786-0 renal it was 11.1 µM and 26.2 µM.
Regarding `CCOC(=O)c1sc(-c2ccc(OS(=O)(=O)c3ccc(Br)s3)c(C=O)c2)nc1C`, the GI50 with UACC-62 melanoma is 2.21 µM; in the assay on COLO 205 colon, 16.8 µM; in the assay with SF-295 CNS it was 5.08 µM; with T-47D breast, 2.77 µM; in the assay with MALME-3M melanoma, 4.08 µM; with SR leukemia, 3.14 µM. For the same molecule, the GI50 is 2.97 µM with PC-3 prostate and 2.75 µM in the assay with 786-0 renal. Further, the TGI with UACC-62 melanoma was 5.97 µM; with COLO 205 colon, 33.8 µM; with SF-295 CNS, 18.4 µM; in the assay on T-47D breast it was 12.1 µM; in the assay on MALME-3M melanoma it was 18.1 µM; in the assay with SR leukemia, more than 100 µM. The TGI in the assay on PC-3 prostate turned out to be 11 µM; with 786-0 renal, 8.16 µM.
Take `COc1cc(/C=C2\C(=O)Nc3cc(C)c(O)cc32)cc(OC)c1OC`: the GI50 in the assay on UACC-62 melanoma is 3.82 µM; in the assay on COLO 205 colon, 6.09 µM; in the assay with SF-295 CNS, 6.03 µM; in the assay with T-47D breast, 3.93 µM; with MALME-3M melanoma, 0.454 µM; in the assay on SR leukemia, 0.857 µM. The GI50 in the assay with PC-3 prostate was 4.32 µM; with 786-0 renal, 10.4 µM. The TGI with UACC-62 melanoma worked out at 16.8 µM; in the assay on COLO 205 colon it was 22.8 µM; in the assay with SF-295 CNS, 26.3 µM; with T-47D breast, 37.9 µM; with MALME-3M melanoma, 9.11 µM; in the assay with SR leukemia, 5.84 µM. The figures for the TGI in the assay with PC-3 prostate and in the assay with 786-0 renal were more than 100 µM and 23.5 µM, respectively.
With `Cc1cnc(NC(=O)Nc2cc(Br)c(C)cc2OC[C@@H]2CNCCO2)cn1`, the GI50 with UACC-62 melanoma was 1.19 µM; in the assay with COLO 205 colon it was 2.58 µM and 2.72 µM; with SF-295 CNS it was 0.326 µM and 0.263 µM; in the assay with T-47D breast it was 2.88 µM and 7.86 µM; with MALME-3M melanoma, 1.63 µM and 1.94 µM; in the assay on SR leukemia, 0.306 µM and 0.196 µM. For the same molecule, the GI50 was 5.77 µM and 3.73 µM in the assay with PC-3 prostate; 0.417 µM and 0.353 µM with 786-0 renal. Further, the TGI in the assay on UACC-62 melanoma is 6.82 µM; in the assay with COLO 205 colon, 9.03 µM and 8.55 µM; in the assay on SF-295 CNS it was > 10 µM and 3.02 µM; with T-47D breast, > 10 µM and 22.3 µM; in the assay on MALME-3M melanoma, > 10 µM and 6.55 µM; in the assay with SR leukemia it was 1.66 µM and 3.72 µM. In addition, the TGI in the assay on PC-3 prostate was > 10 µM and 16.4 µM; in the assay with 786-0 renal it was > 10 µM and 5 µM.
On to `CC(=O)O[C@H]1CC[C@@]2(C)C(=CC[C@H]3[C@@H]4CC[C@H](c5cc(C(F)(F)F)n(C(C)=O)n5)[C@@]4(C)CC[C@@H]32)C1`, for which the TGI with UACC-62 melanoma was 24.5 µM; in the assay with COLO 205 colon it was 14.5 µM; in the assay on SF-295 CNS, 17 µM; in the assay with T-47D breast, 25 µM; in the assay on MALME-3M melanoma, more than 52.8 µM; with SR leukemia it was 14.8 µM. Further, the TGI in the assay with PC-3 prostate was 16 µM; in the assay on 786-0 renal it was 17.7 µM.
For `CCc1cccc(C)c1NC(=O)c1sc2nc3c(cc2c1N)CCCCC3`, the GI50 is 3.31 µM in the assay with UACC-62 melanoma; 2.98 µM in the assay on COLO 205 colon; 3.05 µM with SF-295 CNS; 4.65 µM with T-47D breast; 9.11 µM in the assay with MALME-3M melanoma; 2.27 µM in the assay with SR leukemia. The GI50 with PC-3 prostate is 3.19 µM; with 786-0 renal, 4.58 µM. Moreover, the TGI with UACC-62 melanoma was more than 100 µM; in the assay on COLO 205 colon, 15.2 µM; in the assay with SF-295 CNS it was more than 100 µM; in the assay on T-47D breast it was more than 100 µM; in the assay with MALME-3M melanoma it was 84.4 µM; with SR leukemia it was 54 µM. Besides, the TGI with PC-3 prostate and in the assay on 786-0 renal was more than 100 µM in each case.
For `[Cl][Hg][Cl]`, the GI50 in the assay on UACC-62 melanoma was 13.2 µM; with COLO 205 colon, 10.3 µM; in the assay with SF-295 CNS, 16.7 µM; in the assay on T-47D breast, 5.18 µM; in the assay with MALME-3M melanoma, 9.16 µM; in the assay on SR leukemia, 1.72 µM. Moreover, the GI50 in the assay on PC-3 prostate was 17.3 µM; in the assay on 786-0 renal, 12.6 µM. In addition, the TGI in the assay with UACC-62 melanoma came out at 27.3 µM; with COLO 205 colon it was 24.6 µM; in the assay on SF-295 CNS, 31.9 µM; in the assay on T-47D breast it was 30.2 µM; in the assay on MALME-3M melanoma, 22.1 µM; with PC-3 prostate, 32 µM. In addition, the TGI in the assay on 786-0 renal amounted to 25.1 µM.
Take `S=C(Nc1ccc(Br)cc1)Nc1ccc(Br)cc1`: the GI50 is 3.52 µM in the assay with UACC-62 melanoma; 7.82 µM in the assay with COLO 205 colon; 2.99 µM in the assay on SF-295 CNS; 2.99 µM with T-47D breast; 11.7 µM in the assay with MALME-3M melanoma; 6.96 µM in the assay with SR leukemia. The GI50 in the assay on PC-3 prostate is 4.17 µM; with 786-0 renal, 38.5 µM. Besides, the TGI in the assay with UACC-62 melanoma, in the assay on COLO 205 colon, with SF-295 CNS, in the assay on T-47D breast, with MALME-3M melanoma and in the assay on SR leukemia was more than 100 µM each time. Moreover, the TGI in the assay on PC-3 prostate and in the assay on 786-0 renal was more than 100 µM throughout.

Source of the values: PubChem BioAssay (NCI).
